Measured values reported in US7259262B2, “Arylazole derivatives, their manufacture and use as pharmaceutical agents” (Hoffmann-La Roche Inc., priority 2003, dated 2007).
pIC50: −log10 of the molar value.

What was measured:
[1] = tested on: A549 cells (human lung carcinoma cell line); assay: A549 cell proliferation MTT assay; assay type: cell-based; details: 120 h, 5 days incubation, MTT readout at 550 nm
Protocol: A549 cells (human lung carcinoma cell line) were cultivated in RPMI 1640, 2.5% FCS, 2 mM glutamine, 100 u/ml Penicillin, 100 μg/ml Streptomycin. For the assay the cells were seeded in 384 well plates, 900 cells per well, in the same medium. The next day compounds (dissolved 10 mM in DMSO) were added in various concentrations ranging from 3 μM to 0.15 nM (10 concentrations, 1:3 diluted). After 5 days the MTT assay was done mainly according to the instructions of the manufacturer (Cell proliferation kit I, MTT, from Roche Molecular Biochemicals). In brief, MTT labeling reagent was added to a final concentration of 0.5 mg/ml, added and incubated for 4 hrs at 37 C, 5% CO2. During this incubation time purple formazan crystals are formed. After addition of the solubilization solution (20% SDS in 0.02 M HCl) the plates were incubated overnight at 37° C., 5% CO2.
After careful mixing the plates were measured in Victor 2 (scanning multiwell spectrophotometer, Wallac) at 550 nm.
A decrease in number of living cells results in a decrease in the total metabolic activity in the sample. The decrease directly correlates to the amount of purple color resulting from the solubilization of the purple formazan crystals.
A549: 900 cells in 60 μl per well of 384 well plate (Greiner) • Medium: RPMI 1640, 2.5% FCS, glutamine, pen/strep. • Incubate 1 day at 37° C.
Induction: • Dilution of compound in DMSO: 3 μl 10 mM+27 μl DMSO, dilute 1:3 • Add 2 μl of compound dilution row to 95 μl of medium • Add 10 μl of compound dilution to 60 μl medium in test plate ? 0.3% DMSO per well • Incubate 120 h (5 days) at 37° C., 5% CO2
Analysis: • Add 7 μl MTT (5 mg/ml/well), incubate 4 h at 37° C. • Add 30 μl lysis buffer (20% SDS, 0.04 N HCl) per well • Incubate overnight at 37° C.
Measurement: • Victor 2; 550 nm • Determination of IC50 was done using XL-fit.

| SMILES | pIC50 [1] | melting point |
| --- | --- | --- |
| Clc1ccc(/C=C/c2nc(COc3ccc(-c4nc(Cn5ccnn5)co4)cc3)co2)cc1 [Example 5, 1-[2-(4-{2-[(E)-2-(4-Chloro-phenyl)-vinyl]-oxazol-4-ylmethoxy}-phenyl)-oxazol-4-ylmethyl]-1H-[1,2,3]triazole] | 7.16 | 208 to 210 °C |
| [O-][S+](c1ccc(/C=C/c2nc(COc3ccc(-c4nc(Cn5ccnn5)co4)cc3)co2)cc1)C(F)(F)F (stereo not shown) [Example 15, 1-[2-(4-{2-[(E)-2-(−4-Trifluoromethylsulfinyl-phenyl)-vinyl]-oxazol-4-ylmethoxy}-phenyl)-oxazol-4-ylmethyl]-1H-[1,2,3]triazole] | – | 167 to 169 °C |
| COc1ccc(/C=C/c2nc(COc3ccc(-c4nc(Cn5ccnn5)co4)cc3)co2)cc1 [Example 1, 1-[2-(4-{2-[(E)-2-(4-Methoxy-phenyl)-vinyl]-oxazol-4-ylmethoxy}-phenyl)-oxazol-4-ylmethyl]-1H-[1,2,3]triazole] | – | 178 °C |
| OCCc1nccn1Cc1coc(-c2ccc(OCc3coc(/C=C/c4ccc(Cl)cc4F)n3)cc2)n1 [Example 18, 2-{1-[2-(4-{2-[(E)-2-(4-Chloro-2-fluoro-phenyl)-vinyl]-oxazol-4-ylmethoxy}-phenyl)-oxazole-4-ylmethyl]-1H-imidazol-2-yl}-ethanol] | – | 170 to 172 °C |
| Fc1cc(C(F)(F)F)ccc1/C=C/c1nc(COc2ccc(-c3nc(Cn4ccnc4)co3)cc2)co1 [Example 13, 2-[(E)-2-(2-Fluoro-4-trifluoromethyl-phenyl)-vinyl]-4-[4-(4-imidazol-1-ylmethyl-oxazol-2-yl)-phenoxymethyl]-oxazole] | – | 150 to 153 °C |
| FC(F)(F)c1ccc(/C=C/c2nc(COc3ccc(-c4nc(Cn5ccnn5)cs4)cc3)co2)cc1 [Example 7, 1-[2-(4-{2-[(E)-2-(4-Trifluoromethyl-phenyl)-vinyl]-oxazol-4-ylmethoxy}-phenyl) -thiazol-4-ylmethyl]-1H-[1,2,3]triazole] | 7.43 | 163 to 165 °C |
| FC(F)(F)Sc1ccc(/C=C/c2nc(COc3ccc(-c4nc(Cn5ccnc5)co4)cc3)co2)cc1 [Example 16, 1-[2-(4-{2-[(E)-2-(−4-Trifluoromethylsulfanyl-phenyl)-vinyl]-oxazol-4-ylmethoxy}-phenyl)-oxazol-4-ylmethyl]-1H-imidazole] | – | 144 to 145 °C |
| FC(F)(F)c1ccc(/C=C/c2nc(COc3ccc(-c4nc(Cn5ccnn5)co4)cc3)co2)cc1 [Example 4, 1-[2-(4-{2-[(E)-2-(4-Trifluoromethyl-phenyl)-vinyl]-oxazol-4-ylmethoxy}-phenyl) -oxazol-4-ylmethyl]-1H-[1,2,3]triazole] | 7.35 | 170 °C |
| FC(F)(F)c1ccc(/C=C/c2nc(COc3ccc(-c4nc(Cn5ccnn5)cs4)cc3)cs2)cc1 [Example 11, 1-[2-(4-{2-[(E)-2-(4-Trifluoromethyl-phenyl)-vinyl]-thiazol-4-ylmethoxy}-phenyl) -thiazole-4-ylmethyl]-1H-[1,2,3]triazole] | – | 146 to 148 °C |
| Fc1cc(C(F)(F)F)ccc1/C=C/c1nc(COc2ccc(-c3nc(Cn4ccnn4)cs3)cc2)co1 [Example 8, 1-[2-(4-{2-[(E)-2-(2-Fluoro-4-trifluoromethyl-phenyl)-vinyl]-oxazol-4-ylmethoxy}-phenyl)-thiazol-4-ylmethyl]-1H-[1,2,3]triazole] | 7.15 | 180 to 182 °C |
| Fc1cc(Cl)ccc1/C=C/c1nc(COc2ccc(-c3nc(Cn4ccnc4)co3)cc2)co1 [Example 14, 2-[(E)-2-(2-Fluoro-4-chloro-phenyl)-vinyl]-4-[4-(4-imidazol-1-ylmethyl-oxazol-2-yl)phenoxymethyl]-oxazole] | – | 166 to 167 °C |
| Fc1cc(C(F)(F)F)ccc1/C=C/c1nc(COc2ccc(-c3nc(Cn4ccnn4)co3)cc2)co1 [Example 6, 1-[2-(4-{2-[(E)-2-(2-Fluoro-4-trifluoromethyl-phenyl)-vinyl]-oxazol-4-ylmethoxy}-phenyl)-oxazol-4-ylmethyl]-1H-[1,2,3]triazole] | 8.15 | 152 to 154 °C |
| [O-][S+](c1ccc(/C=C/c2nc(COc3ccc(-c4nc(Cn5ccnc5)co4)cc3)co2)cc1)C(F)(F)F (stereo not shown) [Example 17, 1-[2-(4-{2-[(E)-2-(−4-Trifluoromethylsulfinyl-phenyl)-vinyl]-oxazol-4-ylmethoxy}-phenyl)-oxazol-4-ylmethyl]-1H-imidazole] | – | 134 to 136 °C |
| Fc1cc(C(F)(F)F)ccc1/C=C/c1nc(COc2ccc(-c3nc(Cn4ccnc4)cs3)cc2)co1 [Example 12, 2-[(E)-2-(2-Fluoro-4-trifluoromethyl-phenyl)-vinyl]-4-[4-(4-imidazol-1-ylmethyl-thiazole-2-yl)-phenoxymethyl]-oxazole] | – | 133 to 135 °C |
| FC(F)(F)Sc1ccc(/C=C/c2nc(COc3ccc(-c4nc(Cn5ccnn5)co4)cc3)co2)cc1 [Example 3, 1-[2-(4-{2-[(E)-2-(−4-Trifluoromethylsulfanyl-phenyl)-vinyl]-oxazol-4-ylmethoxy}-phenyl)-oxazol-4-ylmethyl]-1H-[1,2,3]triazole] | 7.34 | 172 to 173 °C |
| Fc1cc(Cl)ccc1/C=C/c1nc(COc2ccc(-c3nc(Cn4ccnn4)co3)cc2)co1 [Example 9, 1-[2-(4-{2-[(E)-2-(4-Chloro-2-fluoro-phenyl)-vinyl]-oxazol-4-ylmethoxy}-phenyl)oxazole-4-ylmethyl]-1H-[1,2,3]triazole] | 7.96 | 193 to 194 °C |
| FC(F)(F)Oc1ccc(/C=C/c2nc(COc3ccc(-c4nc(Cn5ccnn5)co4)cc3)co2)cc1 [Example 2, 1-[2-(4-{2-[(E)-2-(4-Trifluoromethoxy-phenyl)-vinyl]-oxazol-4-ylmethoxy}-phenyl) -oxazol-4-ylmethyl]-1H-[1,2,3]triazole] | 7.34 | 166 to 172 °C |
| FC(F)(F)c1ccc(/C=C/c2nc(COc3ccc(-c4nc(Cn5ccnn5)co4)cc3)cs2)cc1 [Example 10, 1-[2-(4-{2-[(E)-2-(4-Trifluoromethyl-phenyl)-vinyl]-thiazol-4-ylmethoxy}-phenyl) -oxazol-4-ylmethyl]-1H-[1,2,3]triazole] | 7.22 | 179 to 181 °C |
| FS(F)(F)(F)(F)c1ccc(/C=C/c2nc(COc3ccc(-c4nc(Cn5ccnn5)co4)cc3)co2)cc1 [Example 19, 1-[2-(4-{2-[(E)-2-(4-Pentafluorosulfanyl-phenyl)-vinyl]-oxazol-4-ylmethoxy}-phenyl) -oxazol-4-ylmethyl]-1H-[1,2,3]triazole] | – | 172 to 174 °C |
